Results on two compounds are retold here after US20040142971A1, “BENZOTHIOPHENE COMPOUNDS HAVING ANTIINFECTIVE ACTIVITY” (GeneSoft, Inc., priority 2001, published 2004).

For one experiment, the system named is B. Cereus ATCC 11778. As to the kind of experiment: MIC, NCCLS broth microdilution. The experiment is classed as cell-based, Bacillus cereus. Particulars: Bacillus cereus. In a few lines:
(§1)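 MIC determined by broth microdilution in microtiter plates following NCCLS guidelines (documents M7-A4, M11-A4 and M27-T).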

The test system of experiment [1] is E. faecium ATCC 51559 (vancomycin resistant strain, VRE). Nature of the experiment: MIC, NCCLS broth microdilution. The format is cell-based, Enterococcus faecium. Particulars: Enterococcus faecium, read-out: Minimum Inhibitory Concentration (MIC). The source says:
(§2) In vitro biological activity data were collected for a variety of microorganisms, including Bacillus cereus (ATCC 11778), Staphylococcus aureus (ATCC 27660 (a methicillin resistant strain (MRSA), ATCC 33591 and ATCC 43300); ATCC 13709, a methicillin sensitive strain (MSSA)); Streptococcus pneumoniae (ATCC 51422, a penicillin resistant strain (PRSP)), Enterococcus faecium (ATCC 51559, a vancomycin resistant strain (VRE)), and Staphylococcus epidermidis (ATCC 700586, a methycillin resistant strain (MRSE)). Additionally, antifungal activity data were collected for Candida albicans (ATCC 38247). Minimal inhibition concentrations (MIC's) were determined using the National Committee for Clinical Laboratory Standards (NCCLS) broth microdilution assay in microtiter plates, as set forth in: (1) the guidelines of the National Committee for Clinical Laboratory Standards (NCCLS) Document M7-A4 (NCCLS, 1997); (2) the guidelines of the National Committee for Clinical Laboratory Standards (NCCLS) Document M11-A4 (NCCLS, 1997); and (3) the guidelines and reference method of the National Committee for Clinical Laboratory Standards (NCCLS) Document M27-T (NCCLS, 1995). For antifungal essays, the method recommended in Murray, PR., 1995 Manual of Clinical Microbiology (ASM Press, Washington, D.C.), was employed.

The subject of experiment [2] is S. aureus ATCC 13709 (methicillin sensitive strain, MSSA). As to the kind of experiment: MIC, NCCLS broth microdilution. Conditions: Staphylococcus aureus, read-out: Minimum Inhibitory Concentration (MIC). The format is cell-based, Staphylococcus aureus. Summed up:
as §1

The test system of experiment [3] is S. aureus ATCC 27660 (methicillin resistant strain, MRSA). Nature of the experiment: MIC, NCCLS broth microdilution. The experiment is classed as cell-based, Staphylococcus aureus. Particulars: Staphylococcus aureus, read-out: Minimum Inhibitory Concentration (MIC). Summed up:
as §1

The test system of the next experiment is S. aureus ATCC 33591. As to the kind of experiment: MIC, NCCLS broth microdilution. The format is cell-based, Staphylococcus aureus. Particulars: Staphylococcus aureus. Summed up: as §1
Experiment [4] deals with S. epidermidis ATCC 700586 (methycillin resistant strain, MRSE). Nature of the experiment: MIC, NCCLS broth microdilution. The experiment is classed as cell-based, Staphylococcus epidermidis. Conditions: Staphylococcus epidermidis, read-out: Minimum Inhibitory Concentration (MIC).
Excerpt: as §2

The test system of experiment [5] is S. pneumoniae ATCC 51422 (penicillin resistant strain, PRSP). Nature of the experiment: MIC, NCCLS broth microdilution. The experiment is classed as cell-based, Streptococcus pneumoniae. Particulars: Streptococcus pneumoniae, read-out: Minimum Inhibitory Concentration (MIC).
Excerpt: as §2

Experiment [6] deals with Candida albicans (ATCC 38247). As to the kind of experiment: Antifungal MIC. The experiment is classed as cell-based. Conditions: ATCC38247, read-out: MIC.
Excerpt: as §2, with “employed. The results are presented in Table A below, which is keyed as follows: […]” for “employed.”

For experiment [7], the system named is methycillin resistant Staphylococcus aureus ATCC 33591. As to the kind of experiment: Murine neutropenic thigh model. The format is in vivo, mice. Conditions: 50 mg/kg intravenously two hours post infection, 6 hr after treatment. Here is the method: A S. aureus ATCC 33591 culture was grown to log phase overnight and diluted in phosphate buffered saline (pH 7.2) to an optical density of about 0.1 at 600 nm, giving an approximate concentration of 10^8 cfu/mL. The suspension was diluted 1:100 in phosphate buffered saline (pH 7.2) for a final concentration of 10^6 cfu/mL.
Outbred female CF1 mice (approx. 20 gram body weight) were rendered neutropenic by treatment with cyclophosphamide (200 mg/kg body weight, intraperitoneal injection) at 2 and 4 days prior to inoculation. Groups of 5 mice were inoculated with 0.05 mL of the bacteria (approx. 10^6 cfu/mL) into the anterior thigh. Each group was treated intravenously two hours post infection with vehicle (phosphate buffered saline) or test compound. The mice were sacrificed at either 6 or 24 hrs after treatment and thighs were collected aseptically. Each thigh was weighed, placed into sterile saline, and homogenized. The tissue homogenates were diluted appropriately for plating on agar plates. Colony counts were recorded (cfu/gram) and compared to control groups.
In vivo efficacy was shown by a decrease in colony count (log cfu/gram of tissue) in the compound-treated animals when compared against the colony count in animals given only the vehicle.

The test system of another experiment is S. aureus ATCC 43300. As to the kind of experiment: MIC, NCCLS broth microdilution. The format is cell-based. Conditions: Staphylococcus aureus, ATCC43300, read-out: Minimum Inhibitory Concentration (MIC).
Excerpt: as §2

In brackets after ≈: the same amount, converted by molar mass. Read-outs that look alike come from different tables or passages of the source. A value given as a limit tells only on which side of the number the result lay.

As for `Cn1cc(NC(=O)c2cc(NC(=O)c3cc(NC(=O)c4sc5ccccc5c4Cl)c[nH]3)cn2C)cc1C(=O)NCCN1CCCC1` [Ib-48], the MIC is under 4 µg/mL in the experiment on B. Cereus ATCC 11778 (ATCC11778, A = B. Cereus ATCC 11778, read-out: Minimum Inhibitory Concentration (MIC)); 4 to 12 µg/mL (≈ 6.05 to 18.1 µM) in [1] (B = E. faecium ATCC 51559); under 4 µg/mL in experiment [2] (C = S. aureus ATCC 13709); under 4 µg/mL in experiment [3] (D = S. aureus ATCC 27660); under 4 µg/mL in the experiment on S. aureus ATCC 33591 (ATCC33591, E = S. aureus ATCC 33591, read-out: Minimum Inhibitory Concentration (MIC)); under 4 µg/mL in experiment [4] (G = S. epidermidis ATCC 700586). The MIC in [5] (H = S. pneumoniae ATCC 51422) and in experiment [6] was under 4 µg/mL in each case. For the same compound, the “Colony Count (log cfu/gram) Compound” value in experiment [7] came to 4.74 log cfu/gram.

With `Cn1cc(NC(=O)c2cc(NC(=O)c3cc(NC(=O)c4sc5ccccc5c4Cl)cn3C)cn2C)cc1C(=O)NCCN1CCOCC1` [Ib-1], the MIC in the experiment on B. Cereus ATCC 11778 (ATCC11778, read-out: Minimum Inhibitory Concentration (MIC)) was under 4 µg/mL; in [1], under 4 µg/mL; in experiment [2] it was under 4 µg/mL; in [3], under 4 µg/mL; in the experiment with S. aureus ATCC 33591 (ATCC33591, read-out: Minimum Inhibitory Concentration (MIC)), under 4 µg/mL; in the experiment with S. aureus ATCC 43300, under 4 µg/mL. Moreover, the MIC in experiment [4] and in experiment [5] was under 4 µg/mL in each case.
